Literature values as cited in paper PMC3775475 (European journal of medicinal chemistry, 2013).

Biological target: kappa-OR (UniProt P41145)
Sequence (P41145 whole entry): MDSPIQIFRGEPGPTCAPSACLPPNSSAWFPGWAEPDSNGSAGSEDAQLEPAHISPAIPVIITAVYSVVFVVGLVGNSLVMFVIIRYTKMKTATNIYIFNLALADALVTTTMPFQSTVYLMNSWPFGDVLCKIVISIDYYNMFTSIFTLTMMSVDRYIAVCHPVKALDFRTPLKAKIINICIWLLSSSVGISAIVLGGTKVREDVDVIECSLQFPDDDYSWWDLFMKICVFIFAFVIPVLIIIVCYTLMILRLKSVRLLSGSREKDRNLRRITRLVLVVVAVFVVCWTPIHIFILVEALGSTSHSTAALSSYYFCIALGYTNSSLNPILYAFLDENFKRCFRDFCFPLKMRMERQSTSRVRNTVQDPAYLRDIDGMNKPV

Compound | Ki [nM]
CC[C@@H](C)[C@@H](NC(=O)[C@@H](Cc1ccccc1)NC(=O)[C@H](N)Cc1ccccc1)C(=O)N[C@H](CCCNC(=N)N)C(N)=O [compound 4] | 2.4
ff(D-nle)r-NH2 (R1 f, R2 f, R3 nle, R4 r) [compound 1] | 1.2
